Test results: patent publication US20210177795A1 (priority 2017, published 2021)
Peptide text beside a SMILES is read from it. * marks the point of attachment. X1 = CCCCCCCCCCCCCCCC(=O)OCC(C*)OC(=O)CCCCCCCCCCCCCCC

Settings: mouse, in vivo

| Structure (SMILES) | highest weight loss | weight loss relative to baseline |
| --- | --- | --- |
| CCCCCCCCCCCCCCCC(=O)OCC(CSC[C@H](N)C(=O)N[C@@H](CO)C(=O)N[C@@H](CO)C(=O)NCCOCCOCCOCCOCCOCCOCCOCCOCCOCCOCCOCCOCCC(=O)NCC(N)=O)OC(=O)CCCCCCCCCCCCCCC (some centres unmarked) [INNA-003, PEG-S—S-Pam2Cys] | 4.67%±2.12% | – |
| CCCCCCCCCCCCCCCC(=O)OCC(CSC[C@H](N)C(=O)N[C@@H](CO)C(=O)N[C@@H](CCCCN)C(=O)N[C@@H](CCCCN)C(=O)N[C@@H](CCCCN)C(=O)N[C@@H](CCCCN)C(=O)O)OC(=O)CCCCCCCCCCCCCCC (some centres unmarked) [Pam2Cys-SK4, dipalmitoyl-S-glyceryl cysteine-serine-(lysine)4, reference compound] (H-C(X1)SKKKK-OH) | – | little or no weight loss |
